Laboratory results published in DBAASP.
In brackets after ≈: the same amount, converted by molar mass. Values belong to the compound of their own block, whether it stands above or below them.

Experiments:
Test in all cases: ≥ marks a high value that may be exact or a test limit, other limits are often not marked, values filed in µg/mL are converted to µM
[1] = tested on: Pseudomonas aeruginosa ATCC 27853
[2] = tested on: Candida albicans ATCC 1023
Candida albicans = tested on: Candida albicans
[3] = tested on: Escherichia coli ATCC 25922
[4] = tested on: Staphylococcus aureus ATCC 25923
[5] = tested on: Escherichia coli KpC+001812446
Enterobacter cloacae = tested on: Enterobacter cloacae
Staphylococcus aureus MR = tested on: Staphylococcus aureus MR
Acinetobacter baumannii = tested on: Acinetobacter baumannii
[6] = tested on: Klebsiella pneumoniae ATCC 13883
[7] = tested on: Klebsiella pneumoniae KpC+001825971
[8] = tested on: Staphylococcus aureus ATCC 12600
[9] = tested on: Pseudomonas aeruginosa PAO1
[10] = tested on: Pseudomonas aeruginosa PA14
Escherichia coli BL21 = tested on: Escherichia coli BL21
[11] = tested on: Bacillus megaterium ATCC 10778
Escherichia coli SBS 363 = tested on: Escherichia coli SBS 363
[12] = tested on: Enterobacter cloacae beta-12
Micrococcus luteus A270 = tested on: Micrococcus luteus A270
Candida albicans MDM8 = tested on: Candida albicans MDM8
[13] = tested on: Serratia marcescens ATCC 4112
[14] = tested on: Candida tropicalis IOC 4560
[15] = tested on: Candida albicans ATCC 24433
[16] = tested on: Candida parapsilosis ATCC 22019
Escherichia coli = tested on: Escherichia coli
[17] = tested on: Trichophyton rubrum ATCC 28189
Staphylococcus aureus = tested on: Staphylococcus aureus
[18] = tested on: Escherichia coli ATCC 43827
Escherichia coli ESBL 4 = tested on: Escherichia coli ESBL 4
Escherichia coli ESBL = tested on: Escherichia coli ESBL
[19] = tested on: Escherichia coli ATCC 35218
[20] = tested on: Escherichia coli ATCC 11775
Aureobasidium pullulans = tested on: Aureobasidium pullulans
[21] = tested on: Candida albicans ATCC 10231
[22] = tested on: Staphylococcus aureus ATCC 9144
[23] = tested on: Corynebacterium glutamicum ATCC 13032

MIC [1]: 48.8 µM (≈ 64 µg/mL)
MIC [2]: ≥ 195 µM
MIC (Candida albicans): 195 µM (≈ 256 µg/mL)
MIC [3]: 24.4 µM (≈ 32 µg/mL)
MIC [4]: 6.1 µM (≈ 7.99 µg/mL)
SMILES: CC[C@H](C)[C@H](NC(=O)CN)C(=O)N[C@@H](CC(C)C)C(=O)N[C@@H](CC(=O)O)C(=O)N[C@@H](C)C(=O)N[C@H](C(=O)N[C@@H](CCCCN)C(=O)N[C@@H](C)C(=O)N[C@H](C(=O)N[C@@H](C)C(=O)N[C@@H](CCCCN)C(=O)N[C@@H](C)C(=O)N[C@@H](C)C(=O)NCC(N)=O)[C@@H](C)CC)[C@@H](C)CC [GILDAIKAIAKAAG]

MIC [5]: 8 µM (≈ 13.1 µg/mL)
MIC (Enterobacter cloacae): ≥ 32 µM
MIC (Staphylococcus aureus MR): 8 µM (≈ 13.1 µg/mL)
MIC (Acinetobacter baumannii): ≥ 32 µM
MIC [6]: ≥ 32 µM
MIC [7]: ≥ 32 µM
MIC [3]: 4 µM (≈ 6.54 µg/mL)
MIC [8]: 4 µM (≈ 6.54 µg/mL)
MIC [9]: 4 µM (≈ 6.54 µg/mL)
MIC [10]: 4 µM (≈ 6.54 µg/mL)
MIC [4]: 8 µM (≈ 13.1 µg/mL)
MIC (Escherichia coli BL21): 2 µM (≈ 3.27 µg/mL)
SMILES: CC[C@H](C)[C@H](N)C(=O)N[C@@H](CC(N)=O)C(=O)N[C@@H](CC(C)C)C(=O)N[C@@H](CCCCN)C(=O)N[C@@H](CCCCN)C(=O)N[C@@H](CC(C)C)C(=O)N[C@@H](C)C(=O)N[C@@H](C)C(=O)N[C@@H](CCCN=C(N)N)C(=O)N[C@H](C(=O)N[C@@H](CCCCN)C(=O)N[C@@H](CCCCN)C(=O)N[C@@H](CCCCN)C(=O)N[C@H](C(N)=O)[C@@H](C)CC)[C@@H](C)CC [INLKKLAARIKKKI]

MIC [11]: 3.1 µM (≈ 4.22 µg/mL)
MIC (Escherichia coli SBS 363): ≥ 50 µM
MIC [12]: ≥ 50 µM
MIC [1]: > 50 µM
MIC (Micrococcus luteus A270): 0.8 µM (≈ 1.09 µg/mL)
MIC (Candida albicans MDM8): 25 µM (≈ 34 µg/mL)
MIC [13]: 0.8 µM (≈ 1.09 µg/mL)
MIC [14]: 25 µM (≈ 34 µg/mL)
SMILES: CC(C)C[C@H](NC(=O)CN)C(=O)NCC(=O)N[C@@H](C)C(=O)N[C@@H](CC(C)C)C(=O)N[C@@H](Cc1c[nH]c2ccccc12)C(=O)N[C@@H](CC(N)=O)C(=O)N[C@H](C(=O)N[C@@H](C)C(=O)N[C@@H](CCCCN)C(=O)N[C@@H](CO)C(=O)N[C@H](C(=O)N[C@@H](Cc1ccccc1)C(N)=O)C(C)C)C(C)C [GLGALWNVAKSVF]

MIC [15]: ≥ 270 µM
MIC [16]: ≥ 270 µM
MIC (Escherichia coli): > 270 µM
MIC [17]: ≥ 270 µM
MIC (Staphylococcus aureus): > 270 µM
SMILES: CC[C@H](C)[C@H](NC(=O)[C@H](CC(C)C)NC(=O)[C@H](CCC(N)=O)NC(=O)[C@H](CO)NC(=O)[C@H](CCCN=C(N)N)NC(=O)[C@@H](N)CO)C(=O)N[C@H](C(=O)N[C@@H](Cc1cnc[nH]1)C(=O)N[C@@H](CCC(N)=O)C(=O)N[C@@H](CCCN=C(N)N)C(=O)N[C@@H](CC(C)C)C(=O)N[C@@H](Cc1ccccc1)C(N)=O)C(C)C [SRSQLIVHQRLF]

MIC [18]: 25 µM (≈ 43.3 µg/mL)
MIC (Escherichia coli ESBL 4): ≥ 100 µM
MIC [1]: > 100 µM
MIC (Escherichia coli ESBL): 25 µM (≈ 43.3 µg/mL)
MIC [19]: 25 µM (≈ 43.3 µg/mL)
MIC [3]: 50 µM (≈ 86.6 µg/mL)
MIC [20]: ≥ 100 µM
SMILES: CC[C@H](C)[C@H](NC(=O)[C@H](Cc1ccc(O)cc1)NC(=O)[C@H](CCC(N)=O)NC(=O)[C@H](CC(C)C)NC(=O)[C@H](C)NC(=O)[C@H](CCCCN)NC(=O)[C@H](CCCCN)NC(=O)[C@H](CCSC)NC(=O)[C@H](CCCCN)NC(=O)[C@@H](N)CCCCN)C(=O)N[C@@H](CCCCN)C(=O)N[C@@H](CC(C)C)C(=O)N[C@@H](CC(C)C)C(=O)N[C@@H](CCCCN)C(N)=O [KKMKKALQYIKLLK]

MIC (Aureobasidium pullulans): ≥ 50 µM
MIC [1]: 6.3 µM (≈ 9.35 µg/mL)
MIC [21]: 25 µM (≈ 37.1 µg/mL)
MIC [22]: ≥ 50 µM
MIC [3]: 6.3 µM (≈ 9.35 µg/mL)
MIC [23]: 0.8 µM (≈ 1.19 µg/mL)
SMILES: CC(C)[C@H](NC(=O)[C@H](CCCCN)NC(=O)[C@H](C)NC(=O)[C@@H](NC(=O)[C@@H](NC(=O)[C@H](CCCN=C(N)N)NC(=O)[C@H](CCCN=C(N)N)NC(=O)[C@H](Cc1c[nH]c2ccccc12)NC(=O)[C@H](Cc1c[nH]c2ccccc12)NC(=O)CN)[C@@H](C)O)C(C)C)C(=O)N[C@@H](CCCN=C(N)N)C(=O)N[C@@H](C)C(N)=O [GWWRRTVAKVRA]
